Measured values from ChEMBL document CHEMBL5518181, “Studies of antibacterial activity (in vitro and in vivo) and mode of action for des-acyl tridecaptins (DATs)” (Eur J Med Chem, 2024).
Converted amounts (≈) assume the structure as drawn.

Columns and labels:
[1] = Hemolytic activity in human red blood cells at 400 ug/ml incubated for 45 mins by spectrophotometric analysis relative to control; format: toxicity, cell-based, Erythrocyte; details: red blood cells (erythrocytes), at 400 µg/mL, read-out: Activity
Klebsiella pneumoniae = assay: Antibacterial activity against wild-type Klebsiella pneumoniae ATCC 13883 assessed as inhibition of bacterial growth incubated for 18 hrs; format: functional; details: read-out: MIC100
[2] = Cytotoxicity against human HepG2 cells incubated for 40 hrs by celltiter-glo luminescent cell viability assay; format: toxicity, cell-based
Escherichia coli = assay: Antibacterial activity against wild-type Escherichia coli ATCC 25922 assessed as inhibition of bacterial growth incubated for 18 hrs; format: functional; details: read-out: MIC100

Row | MIC (Klebsiella pneumoniae) [µg/mL] | MIC (Escherichia coli) [µg/mL] | SMILES | hemolysis at 0.75 h, 400 ug/ml [1] [%] | IC50 at 40 h [2] [µg/mL]
1 | 32 (≈ 22 µM) | 32 (≈ 22 µM) | CC[C@H](C)[C@@H](NC(=O)[C@@H](NC(=O)[C@H](CCC(=O)O)NC(=O)[C@H](Cc1ccccc1)NC(=O)[C@@H](CCN)NC(=O)[C@H](CCN)NC(=O)[C@H](CO)NC(=O)[C@@H](Cc1c[nH]c2ccccc12)NC(=O)[C@@H](CO)NC(=O)CNC(=O)[C@@H](CCN)NC(=O)[C@H](NC(=O)CN)C(C)C)C(C)C)C(=O)N[C@@H](C)C(=O)O | 0 | > 70
2 | 64 (≈ 46.8 µM) | > 64 | CC[C@H](C)[C@@H](NC(=O)[C@H](C)NC(=O)[C@H](CCC(=O)O)NC(=O)[C@H](Cc1ccccc1)NC(=O)[C@@H](CCN)NC(=O)[C@H](CCN)NC(=O)[C@H](CO)NC(=O)[C@@H](Cc1c[nH]c2ccccc12)NC(=O)[C@@H](CO)NC(=O)CNC(=O)[C@@H](CCN)NC(=O)[C@H](N)C(C)C)C(=O)N[C@@H](C)C(=O)O | 0.8 | 58 (≈ 42.4 µM)
3 | > 64 | > 64 | CC[C@H](C)[C@@H](NC(=O)[C@@H](NC(=O)[C@H](CCC(=O)O)NC(=O)[C@H](Cc1ccccc1)NC(=O)[C@@H](CCN)NC(=O)[C@H](CCN)NC(=O)[C@H](CO)NC(=O)[C@@H](Cc1c[nH]c2ccccc12)NC(=O)[C@@H](CO)NC(=O)CNC(=O)[C@@H](CCN)NC(=O)[C@H](N)CC(=O)O)C(C)C)C(=O)N[C@@H](C)C(=O)O | 0 | > 170
4 | 64 (≈ 44.5 µM) | > 64 | CC[C@H](C)[C@@H](NC(=O)[C@@H](NC(=O)[C@H](CCC(=O)O)NC(=O)[C@H](Cc1ccccc1)NC(=O)[C@@H](CCN)NC(=O)[C@H](CCN)NC(=O)[C@H](CO)NC(=O)[C@@H](Cc1c[nH]c2ccccc12)NC(=O)[C@@H](CO)NC(=O)CNC(=O)[C@@H](C)NC(=O)[C@H](NC(=O)[C@H](C)N)C(C)C)C(C)C)C(=O)N[C@@H](C)C(=O)O | 0.6 | > 170
5 | 8 (≈ 5.52 µM) | 4 (≈ 2.76 µM) | CC[C@H](C)[C@@H](NC(=O)[C@@H](NC(=O)[C@H](CCC(=O)O)NC(=O)[C@H](Cc1ccccc1)NC(=O)[C@@H](CCN)NC(=O)[C@H](CCN)NC(=O)[C@H](C)NC(=O)[C@@H](Cc1c[nH]c2ccccc12)NC(=O)[C@@H](CO)NC(=O)CNC(=O)[C@@H](CCN)NC(=O)[C@H](NC(=O)[C@H](C)N)C(C)C)C(C)C)C(=O)N[C@@H](C)C(=O)O | 0 | > 170
6 | 64 (≈ 46.9 µM) | > 64 | CC[C@H](C)[C@@H](NC(=O)[C@@H](NC(=O)[C@H](CCC(=O)O)NC(=O)[C@H](Cc1ccccc1)NC(=O)[C@@H](C)NC(=O)[C@H](CCN)NC(=O)[C@H](CO)NC(=O)[C@@H](Cc1c[nH]c2ccccc12)NC(=O)[C@@H](CO)NC(=O)CNC(=O)[C@@H](CCN)NC(=O)[C@H](N)C(C)C)C(C)C)C(=O)N[C@@H](C)C(=O)O | 0 | > 170
7 | > 64 | > 64 | CC[C@H](C)[C@@H](NC(=O)[C@@H](NC(=O)[C@H](CCC(=O)O)NC(=O)[C@H](Cc1ccccc1)NC(=O)[C@@H](CCN)NC(=O)[C@H](CCN)NC(=O)[C@H](CC(=O)O)NC(=O)[C@@H](Cc1c[nH]c2ccccc12)NC(=O)[C@@H](CO)NC(=O)CNC(=O)[C@@H](CCN)NC(=O)[C@H](N)C(C)C)C(C)C)C(=O)N[C@@H](C)C(=O)O | 0 | > 170
8 | 32 (≈ 23.2 µM) | 64 (≈ 46.4 µM) | CC[C@H](C)[C@@H](NC(=O)[C@@H](NC(=O)[C@H](CCC(=O)O)NC(=O)[C@H](Cc1ccccc1)NC(=O)[C@@H](CCN)NC(=O)[C@H](CN)NC(=O)[C@H](CO)NC(=O)[C@@H](Cc1c[nH]c2ccccc12)NC(=O)[C@@H](CO)NC(=O)CNC(=O)[C@@H](CCN)NC(=O)[C@H](N)C(C)C)C(C)C)C(=O)N[C@@H](C)C(=O)O | 1.5 | > 170
9 | > 64 | > 64 | CC[C@H](C)[C@@H](NC(=O)[C@@H](NC(=O)[C@H](CCC(=O)O)NC(=O)[C@H](Cc1ccccc1)NC(=O)[C@@H](CN)NC(=O)[C@H](CCN)NC(=O)[C@H](CO)NC(=O)[C@@H](Cc1c[nH]c2ccccc12)NC(=O)[C@@H](CO)NC(=O)CNC(=O)[C@@H](CCN)NC(=O)[C@H](NC(=O)[C@H](C)N)C(C)C)C(C)C)C(=O)N[C@@H](C)C(=O)O | 0 | > 170
10 | 1 (≈ 0.682 µM) | 2 (≈ 1.36 µM) | CC(C)[C@H](NC(=O)[C@H](CCC(=O)O)NC(=O)[C@H](Cc1ccccc1)NC(=O)[C@@H](CCN)NC(=O)[C@H](CCN)NC(=O)[C@H](CO)NC(=O)[C@@H](Cc1c[nH]c2ccccc12)NC(=O)[C@@H](CO)NC(=O)CNC(=O)[C@@H](CCN)NC(=O)[C@H](NC(=O)[C@H](C)N)C(C)C)C(=O)N[C@@H](C(=O)N[C@@H](C)C(=O)O)C(C)(C)C | 71.2 | 23 (≈ 15.7 µM)
11 | > 64 | > 64 | CC[C@H](C)[C@@H](NC(=O)[C@@H](NC(=O)[C@H](CCC(=O)O)NC(=O)[C@H](Cc1ccccc1)NC(=O)[C@@H](CCN)NC(=O)[C@H](CCN)NC(=O)[C@H](CO)NC(=O)[C@@H](Cc1c[nH]c2ccccc12)NC(=O)[C@@H](CO)NC(=O)CNC(=O)[C@H](N)CCN)C(C)C)C(=O)N[C@@H](C)C(=O)O | 0 | > 170
12 | > 64 | > 64 | CC[C@H](C)[C@@H](NC(=O)[C@@H](NC(=O)[C@H](CCC(=O)O)NC(=O)[C@H](Cc1ccccc1)NC(=O)[C@@H](CCN)NC(=O)[C@H](CCN)NC(=O)[C@H](CO)NC(=O)[C@@H](Cc1c[nH]c2ccccc12)NC(=O)[C@@H](CO)NC(=O)CNC(=O)[C@@H](C)NC(=O)[C@H](N)C(C)C)C(C)C)C(=O)N[C@@H](C)C(=O)O | 0.1 | > 170
13 | > 64 | > 64 | CC[C@H](C)[C@@H](NC(=O)[C@@H](NC(=O)[C@H](CCC(=O)O)NC(=O)[C@H](Cc1ccccc1)NC(=O)[C@@H](CCN)NC(=O)[C@H](CCN)NC(=O)[C@H](CO)NC(=O)[C@@H](C)NC(=O)[C@@H](CO)NC(=O)CNC(=O)[C@@H](CCN)NC(=O)[C@H](N)C(C)C)C(C)C)C(=O)N[C@@H](C)C(=O)O | 0 | > 170
14 | > 64 | > 64 | CC[C@H](C)[C@@H](NC(=O)[C@@H](NC(=O)[C@H](CCC(=O)O)NC(=O)[C@H](Cc1ccccc1)NC(=O)[C@@H](CCN)NC(=O)[C@H](CCN)NC(=O)[C@H](CO)NC(=O)[C@@H](Cc1c[nH]c2ccccc12)NC(=O)[C@@H](CO)NC(=O)CNC(=O)[C@@H](CCN)NC(=O)[C@H](N)CCN)C(C)C)C(=O)N[C@@H](C)C(=O)O | 0 | > 170
15 | 2 (≈ 1.35 µM) | 2 (≈ 1.35 µM) | CC[C@H](C)[C@@H](NC(=O)[C@@H](NC(=O)[C@H](CCC(=O)O)NC(=O)[C@H](Cc1ccccc1)NC(=O)[C@@H](CCN)NC(=O)[C@H](CCN)NC(=O)[C@H](CO)NC(=O)[C@@H](Cc1c[nH]c2ccccc12)NC(=O)[C@@H](CO)NC(=O)CNC(=O)[C@@H](CCN)NC(=O)[C@H](NC(=O)[C@H](C)N)C(C)C)C(C)(C)C)C(=O)N[C@@H](C)C(=O)O | 82.7 | 12 (≈ 8.11 µM)
16 | 32 (≈ 22.3 µM) | 64 (≈ 44.5 µM) | CC[C@H](C)[C@@H](NC(=O)[C@@H](NC(=O)[C@H](CCC(=O)O)NC(=O)[C@H](Cc1ccccc1)NC(=O)[C@@H](CCN)NC(=O)[C@H](CCN)NC(=O)[C@H](CO)NC(=O)[C@@H](Cc1c[nH]c2ccccc12)NC(=O)[C@@H](CO)NC(=O)CNC(=O)[C@@H](CCN)NC(=O)[C@@H](C)NC(=O)[C@H](C)N)C(C)C)C(=O)N[C@@H](C)C(=O)O | 1.3 | > 170
17 | > 64 | > 64 | CC[C@H](C)[C@@H](NC(=O)[C@@H](NC(=O)[C@H](CCC(=O)O)NC(=O)[C@H](Cc1ccccc1)NC(=O)[C@@H](CCN)NC(=O)[C@H](CCN)NC(=O)[C@H](CO)NC(=O)[C@@H](Cc1c[nH]c2ccccc12)NC(=O)[C@@H](CO)NC(=O)CNC(=O)[C@@H](CCN)NC(=O)[C@H](NC(=O)C(F)(F)CN)C(C)C)C(C)C)C(=O)N[C@@H](C)C(=O)O | 0 | > 170
18 | 64 (≈ 45.4 µM) | > 64 | CC[C@H](C)[C@@H](NC(=O)[C@@H](NC(=O)[C@H](CCC(=O)O)NC(=O)[C@H](Cc1ccccc1)NC(=O)[C@@H](CCN)NC(=O)[C@H](CCN)NC(=O)[C@H](CO)NC(=O)[C@@H](Cc1c[nH]c2ccccc12)NC(=O)[C@@H](CO)NC(=O)[C@H](C)NC(=O)[C@@H](CCN)NC(=O)[C@H](N)C(C)C)C(C)C)C(=O)N[C@@H](C)C(=O)O | 0 | > 170
19 | 32 (≈ 22.3 µM) | 32 (≈ 22.3 µM) | CC[C@H](C)[C@@H](NC(=O)[C@H](C)NC(=O)[C@H](CCC(=O)O)NC(=O)[C@H](Cc1ccccc1)NC(=O)[C@@H](CCN)NC(=O)[C@H](CCN)NC(=O)[C@H](CO)NC(=O)[C@@H](Cc1c[nH]c2ccccc12)NC(=O)[C@@H](CO)NC(=O)CNC(=O)[C@@H](CCN)NC(=O)[C@H](NC(=O)[C@H](C)N)C(C)C)C(=O)N[C@@H](C)C(=O)O | 5.5 | 51 (≈ 35.5 µM)
20 | > 64 | > 64 | CC[C@H](C)[C@@H](NC(=O)[C@@H](NC(=O)[C@H](CCC(=O)O)NC(=O)[C@H](Cc1ccccc1)NC(=O)[C@@H](CCN)NC(=O)[C@H](CCN)NC(=O)[C@H](CO)NC(=O)[C@@H](Cc1c[nH]c2ccccc12)NC(=O)[C@@H](CC(=O)O)NC(=O)CNC(=O)[C@@H](CCN)NC(=O)[C@H](N)C(C)C)C(C)C)C(=O)N[C@@H](C)C(=O)O | 0 | > 170
21 | > 64 | > 64 | CC[C@H](C)[C@@H](NC(=O)[C@@H](NC(=O)[C@H](CCC(=O)O)NC(=O)[C@H](Cc1ccccc1)NC(=O)[C@@H](CCN)NC(=O)[C@H](CCN)NC(=O)[C@H](CO)NC(=O)[C@@H](Cc1c[nH]c2ccccc12)NC(=O)[C@@H](CO)NC(=O)CNC(=O)[C@@H](CCN)NC(=O)[C@H](NC(=O)[C@@H](N)CC(=O)O)C(C)C)C(C)C)C(=O)N[C@@H](C)C(=O)O | 0 | > 170
